Measured values from patent US20130266636A1, “METHODS FOR BLOCKING CELL PROLIFERATION AND TREATING DISEASES AND CONDITIONS RESPONSIVE TO CELL GROWTH INHIBITION” (THE REGENTS OF THE UNIVERSITY OF CALIFORNIA, priority 2010, published 2013).
Entries after “also recorded” stand apart in the source; their conditions may differ.

Legend:
[1] = target: PDGFRβ (Homo sapiens, UniProt P09619); conditions: in response to PDGF-BB; cited from earlier work
[2] = system: human breast (T47D) carcinoma cell line; test: Cell viability assay in T47D cells; type: cell-based
[3] = target: Flt-3 (Homo sapiens, UniProt P36888); conditions: cited from earlier work
Flt-3, sequence (P36888 27-993, species assumed): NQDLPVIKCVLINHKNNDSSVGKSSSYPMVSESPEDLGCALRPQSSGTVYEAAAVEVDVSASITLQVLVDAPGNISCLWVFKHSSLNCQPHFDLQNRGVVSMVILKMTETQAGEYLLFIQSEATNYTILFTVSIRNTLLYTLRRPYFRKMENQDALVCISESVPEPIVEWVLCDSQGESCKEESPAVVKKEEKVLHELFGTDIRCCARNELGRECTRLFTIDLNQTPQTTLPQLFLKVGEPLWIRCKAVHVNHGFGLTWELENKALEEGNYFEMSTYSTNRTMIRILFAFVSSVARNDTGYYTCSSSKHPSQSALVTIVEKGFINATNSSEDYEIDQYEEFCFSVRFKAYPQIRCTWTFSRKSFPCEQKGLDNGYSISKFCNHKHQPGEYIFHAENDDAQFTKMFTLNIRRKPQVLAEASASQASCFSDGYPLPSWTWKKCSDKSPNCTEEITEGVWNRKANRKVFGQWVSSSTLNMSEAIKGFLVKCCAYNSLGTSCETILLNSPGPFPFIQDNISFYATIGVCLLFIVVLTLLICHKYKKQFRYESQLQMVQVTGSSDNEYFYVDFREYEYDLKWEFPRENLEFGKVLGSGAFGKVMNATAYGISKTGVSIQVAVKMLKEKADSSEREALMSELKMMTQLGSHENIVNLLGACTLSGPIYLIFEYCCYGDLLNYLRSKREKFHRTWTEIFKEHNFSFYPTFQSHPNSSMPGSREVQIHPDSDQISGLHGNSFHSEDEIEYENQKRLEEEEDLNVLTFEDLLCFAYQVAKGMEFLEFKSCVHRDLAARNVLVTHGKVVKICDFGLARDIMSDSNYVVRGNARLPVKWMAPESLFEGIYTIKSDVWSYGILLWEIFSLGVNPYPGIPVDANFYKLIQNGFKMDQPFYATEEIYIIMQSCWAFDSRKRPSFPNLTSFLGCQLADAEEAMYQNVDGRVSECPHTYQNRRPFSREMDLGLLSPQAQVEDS

[4] = target: T1, phospho-S338 c-RAF (CRAF) (Homo sapiens, UniProt P04049); test: Phospho-S338 CRAF staining in orthotopic MDA-MB-231 breast cancer tissues; type: in vivo, mice; conditions: systemic KG5 50 mg/kg i.p. bid, 3 days
T1 construct: immunofluorescent staining of phospho-S338 c-RAF (CRAF) in orthotopic breast cancer tissues untreated or systemically treated with KG5; from tissue; host or cells: orthotopic MDA-MB-231 tumours in nude mice
T1 sequence (P04049 whole entry): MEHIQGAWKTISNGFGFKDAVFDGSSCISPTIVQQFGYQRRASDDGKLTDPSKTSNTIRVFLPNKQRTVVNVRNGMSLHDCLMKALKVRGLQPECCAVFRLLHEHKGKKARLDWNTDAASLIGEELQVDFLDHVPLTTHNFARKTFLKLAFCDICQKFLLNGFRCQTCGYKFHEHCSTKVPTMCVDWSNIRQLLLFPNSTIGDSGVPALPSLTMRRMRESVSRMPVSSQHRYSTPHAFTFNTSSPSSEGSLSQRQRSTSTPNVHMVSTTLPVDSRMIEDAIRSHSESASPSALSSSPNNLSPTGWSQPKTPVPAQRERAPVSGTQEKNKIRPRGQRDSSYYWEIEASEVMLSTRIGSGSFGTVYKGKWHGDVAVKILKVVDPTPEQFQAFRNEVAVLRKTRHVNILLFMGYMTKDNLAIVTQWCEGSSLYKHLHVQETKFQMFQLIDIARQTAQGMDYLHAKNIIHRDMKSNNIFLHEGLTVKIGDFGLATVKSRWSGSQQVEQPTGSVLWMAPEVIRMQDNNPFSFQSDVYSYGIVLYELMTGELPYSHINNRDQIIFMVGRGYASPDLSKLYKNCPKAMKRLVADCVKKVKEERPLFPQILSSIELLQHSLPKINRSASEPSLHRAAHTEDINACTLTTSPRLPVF
Protocol: FIG. 4 illustrates the effect of KG5 on orthotopic MDA-MB-231 breast cancer cells after three days, as further discussed in Example 1, below.
FIG. 4 illustrates an immunofluorescent staining of phospho-S338 c-RAF (CRAF) in orthotopic breast cancer tissues untreated or systemically treated with KG5 for 3 days.
Tumors were generated by injection of MDA-MB-231 human breast carcinoma cells (2×10^6 tumor cells in 50 μl of sterile PBS) into the mammary fatpad of 6-8 week old female nude mice. Tumors were established for 2 weeks before beginning dosing. Mice were dosed with vehicle (10% HS-15) or 50 mg/kg KG5 (i.p. bid) for 3 days prior to harvest. All research was conducted under protocols approved by the UCSD animal subjects committee and in accordance with the guidelines set forth in the NIH Guide for the Care and Use of Laboratory Animals.
Immunostaining was performed according to the manufacturer's recommendations (Vector Labs), on […] sections of paraffin-embedded tumors from the orthotopic xenograft breast and brain cancer mouse models, the subcutaneous tumor mouse model or from human patients diagnosed with breast or brain cancer (as approved by the Institutional Review Board at University of California, San Diego). Antigen retrieval was performed in citrate buffer pH 6.0 at 95° C. for 20 min. […]

[5] = system: XPA-1 cells; test: Cell cycle analysis, bright field and confocal microscopy of XPA-1 cells; type: cell-based, human
Protocol: FIG. 38. […] FIG. 38(a) Bright field images (scale bar, 20 μm), cell cycle analysis and confocal microscopy images (scale bar, 10 μm, laminB in red and DNA in blue) of XPA-1 cells treated for 20 hours with the allosteric RAF inhibitor KG5, the ATP-competitive inhibitor Sorafenib, the MEK inhibitor PD0325901, the control compound KG1 at 5 μM or paclitaxel at 200 nM. Cells were harvested after 20 hours and the cell cycle stage was determined by flow cytometry and confocal microscopy. White arrows indicate cells arrested at pro-metaphase. Scale bars, 10 μm. FIG. 38(b) Representative confocal microscopy images of untreated XPA-1 tumor cells undergoing mitosis (left image) and XPA-1 cell arrested with KG5 at pro-metaphase (right image). Cells were stained with α-tubulin in red and DNA in blue. Scale bar, 10 μm. FIG. 38(c) XPA-1 cells transfected with a vector control or active MEK were treated with 1 μM KG5 for 20 hours or left untreated and the G2/M population was quantified by flow cytometry. Error bars represent s.d. (n=3); * two tailed p value=0.00063 using a Mann Whitney U test. FIG. 38(d) Immunoblot analysis of XPA-1 cells untreated or treated with 1 μM KG5 for 18 hours. Data are representative of four independent experiments. […] Error bars represent s.d. (n=3); * two tailed p value=0.010 using a Mann Whitney U test. Inset, Immunoblot analysis of HCT-116 cells untreated or treated with 1 μM KG5 for 18 hours.
FIG. 39. […] FIG. 39 graphically illustrates cell cycle analysis of XPA-1 cells treated with the allosteric RAF inhibitor KG5, the microtubule stabilizer paclitaxel, or the ATP-competitive RAF inhibitors sorafenib, L-779450, GW 5074, and ZM-336372. Cells were harvested after 6, 18, 24, 48 and 72 hours and the percentages of cells in G2/M and SubG1 were determined by flow cytometry. Data are representative of three independent experiments.
Cell cycle analysis was performed by flow cytometry following propidium iodide staining. Briefly, cells were harvested, fixed with ice cold methanol, treated for 45 min with 10 μg/ml of RNase and resuspended in PBS containing 10 μg/ml of PI, and analyzed by flow cytometry. Cell cycle analysis was performed in cells treated for 18 hours with the allosteric RAF inhibitor KG5, the ATP-competitive RAF inhibitors: sorafenib, L-779450, GW5074, and ZM-336372, the MEK inhibitor (PD0325901) at […] concentration or paclitaxel at 100 nM.

[6] = target: T2, phospho-S338 CRAF (Mus musculus, UniProt Q99N57); test: Phospho-S338 CRAF staining in orthotopic R40P murine pancreatic cancer tissues; type: in vivo, mice; conditions: systemic KG5, 3 days
T2 construct: immunofluorescent staining of phospho-S338 CRAF in orthotopic pancreatic cancer tissues untreated or systemically treated with KG5; from tissue; host or cells: orthotopic R40P murine pancreatic tumours in mice
Excerpt: FIG. 5 illustrates the effect of KG5 on orthotopic R40P murine pancreatic tumor cells after three days, as further discussed in Example 1, below.
FIG. 5 illustrates an immunofluorescent staining of phospho-S338 CRAF in orthotopic pancreatic cancer tissues untreated or systemically treated with KG5 for 3 days.

[7] = bFGF- or VEGF-stimulated endothelial cells; cited from earlier work

PDGFRβ, sequence (P09619 33-1106, species assumed): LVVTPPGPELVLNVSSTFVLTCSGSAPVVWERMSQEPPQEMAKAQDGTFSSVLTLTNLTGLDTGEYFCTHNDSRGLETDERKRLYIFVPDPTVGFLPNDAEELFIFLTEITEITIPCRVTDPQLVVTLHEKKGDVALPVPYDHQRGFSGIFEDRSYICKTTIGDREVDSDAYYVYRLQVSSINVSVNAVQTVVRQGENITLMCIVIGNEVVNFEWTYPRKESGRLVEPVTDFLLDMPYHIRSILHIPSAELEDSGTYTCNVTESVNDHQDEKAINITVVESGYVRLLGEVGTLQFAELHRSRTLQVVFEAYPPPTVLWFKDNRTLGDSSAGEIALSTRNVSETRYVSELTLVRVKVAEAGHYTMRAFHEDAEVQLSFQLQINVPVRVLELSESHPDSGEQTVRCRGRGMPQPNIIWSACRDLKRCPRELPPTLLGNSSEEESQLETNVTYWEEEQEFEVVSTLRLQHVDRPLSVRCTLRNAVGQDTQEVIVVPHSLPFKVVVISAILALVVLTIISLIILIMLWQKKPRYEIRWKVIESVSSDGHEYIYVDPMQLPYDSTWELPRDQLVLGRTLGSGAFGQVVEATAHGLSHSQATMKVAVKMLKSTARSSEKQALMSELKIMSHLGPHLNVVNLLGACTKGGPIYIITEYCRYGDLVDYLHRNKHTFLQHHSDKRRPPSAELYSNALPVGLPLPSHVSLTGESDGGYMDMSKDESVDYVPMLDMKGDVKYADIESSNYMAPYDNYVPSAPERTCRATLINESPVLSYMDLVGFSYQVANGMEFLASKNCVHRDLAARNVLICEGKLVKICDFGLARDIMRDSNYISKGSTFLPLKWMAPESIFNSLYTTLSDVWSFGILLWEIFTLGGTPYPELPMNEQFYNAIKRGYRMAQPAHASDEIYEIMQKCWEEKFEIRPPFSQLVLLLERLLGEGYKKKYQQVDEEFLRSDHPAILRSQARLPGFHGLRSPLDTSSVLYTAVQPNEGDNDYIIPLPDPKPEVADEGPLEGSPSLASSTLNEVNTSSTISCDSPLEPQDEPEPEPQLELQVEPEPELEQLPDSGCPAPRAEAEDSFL

SMILES: CSc1nc(N)cc(Oc2ccc(-c3nnc(Nc4cccc(C(F)(F)F)c4)[nH]3)cc2)n1 [KG5]
- PDGFRβ autophosphorylation [1]: directly impacts PDGFRβ autophosphorylation
- cell viability ([2]; T47D): decrease cell viability
- EC50 ([2]; T47D breast cancer cells): approach picomolar (pM) EC50s
- inhibition of Flt-3 [3]: inhibits
- phospho-S338 CRAF in orthotopic breast cancer tissues [4]: qualitative decrease in phospho-5338 RAF
- phospho-S338 CRAF in orthotopic breast cancer tissues ([4]; 50 mg/kg): inhibits serine 338 phosphorylation of CRAF
- rescue of KG5 effect on cell proliferation by ectopic active MEK (G2/M population) ([5]; XPA-1 cells transfected with active MEK, 1 μM KG5, 20 hours): failed to rescue
- arrest at pro-metaphase (confocal microscopy) ([5]; XPA-1 cells, 20 hours): arrests cells at pro-metaphase
- cell cycle arrest in G2/M (flow cytometry) ([5]; XPA-1 cells, 20 hours): arrested in G2/M; also recorded: arrests cells in G2/M; also recorded: induces a G2/M arrest followed by cell death
- cell appearance and mitotic function (bright field images) ([5]; XPA-1 cells, 20 hours, same concentration (5 μM, FIG. 38a)): look arrested in mitosis; also recorded: rounded and arrested in mitosis
- phospho-S338 CRAF in orthotopic pancreatic cancer tissues [6]: inhibits serine 338 phosphorylation of CRAF
- p-Aid [7]: did not suppress
